Columns and labels:
[1] = target: Hydroxycarboxylic acid receptor 2 (Homo sapiens) (UniProt Q8TDS4); assay: Positive allosteric activity at GPR109A in human HEK cells assessed as shift in EC50 of nicotinic acid at 3 uM pretreated for 30 mins measured after 90 mins by [35S]-GTPgammaS binding assay; type: functional, cell-based; conditions: HEK293
[2] = target: Hydroxycarboxylic acid receptor 2 (Homo sapiens) (UniProt Q8TDS4); assay: Positive allosteric activity at GPR109A in human HEK cells assessed as shift in EC50 of nicotinic acid at 1 uM pretreated for 30 mins measured after 90 mins by [35S]-GTPgammaS binding assay; type: functional, cell-based; conditions: HEK293

Sequence of Hydroxycarboxylic acid receptor 2 (Homo sapiens) (Q8TDS4 whole entry): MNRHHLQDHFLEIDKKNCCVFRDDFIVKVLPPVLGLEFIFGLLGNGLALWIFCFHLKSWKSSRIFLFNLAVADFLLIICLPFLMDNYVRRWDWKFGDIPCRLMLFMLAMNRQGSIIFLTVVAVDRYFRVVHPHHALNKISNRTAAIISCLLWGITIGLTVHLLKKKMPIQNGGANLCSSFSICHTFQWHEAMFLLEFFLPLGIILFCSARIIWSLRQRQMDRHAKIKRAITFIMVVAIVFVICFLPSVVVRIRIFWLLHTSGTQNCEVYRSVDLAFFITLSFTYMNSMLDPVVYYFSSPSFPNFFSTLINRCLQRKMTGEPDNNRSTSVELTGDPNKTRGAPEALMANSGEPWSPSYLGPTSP

Row | Compound | Emax [1] | Emax [2]
1 | CCc1c(C(=O)NCCOc2ccccc2)cnc2c(-c3ccc(C(C)C)cc3)cnn12 | 129% | 122%
2 | Cc1c(C(=O)NCCOc2ccccc2)cnc2c(-c3ccc(OC(C)C)cc3)cnn12 | 123% | 111%
3 | Cc1c(C(=O)NCCOc2ccccc2)cnc2c(-c3ccc(Cl)c(Cl)c3)cnn12 | 114% | –
4 | Cc1c(C(=O)NCCNc2ccccc2)cnc2c(-c3ccc(C(C)C)cc3)cnn12 | 129% | 120%

Source: ChEMBL document CHEMBL2034901, “Novel 3,6,7-substituted pyrazolopyrimidines as positive allosteric modulators for the hydroxycarboxylic acid receptor 2 (GPR109A)” (J Med Chem, 2012)
